34 compounds from patent publication US9809573B2, “Substituted pyridine derivatives useful as GSK-3 inhibitors” (priority 2013, dated 2017) can be followed below.

Where two headings read alike, the source gives them in different places.

One experiment deals with GSK3α (Homo sapiens, UniProt P49840). Nature of the experiment: biochemical. The procedure: (§1) The kinase assay was performed in V-bottom 384-well plates. […] The reaction was incubated at room temperature for 20 hours and terminated by adding 45 μl of 35 mM EDTA to each sample. The reaction mixture was analyzed on the Caliper LabChip3000 (Caliper, Hopkinton, Mass.) by electrophoretic separation of the unphosphorylated substrate and phosphorylated product. […] Compounds were dissolved at 10 mM in dimethylsulfoxide (DMSO) and evaluated at eleven concentrations. IC50 values were derived by non-linear regression analysis.
GSK3α, sequence (P49840 whole entry, species assumed): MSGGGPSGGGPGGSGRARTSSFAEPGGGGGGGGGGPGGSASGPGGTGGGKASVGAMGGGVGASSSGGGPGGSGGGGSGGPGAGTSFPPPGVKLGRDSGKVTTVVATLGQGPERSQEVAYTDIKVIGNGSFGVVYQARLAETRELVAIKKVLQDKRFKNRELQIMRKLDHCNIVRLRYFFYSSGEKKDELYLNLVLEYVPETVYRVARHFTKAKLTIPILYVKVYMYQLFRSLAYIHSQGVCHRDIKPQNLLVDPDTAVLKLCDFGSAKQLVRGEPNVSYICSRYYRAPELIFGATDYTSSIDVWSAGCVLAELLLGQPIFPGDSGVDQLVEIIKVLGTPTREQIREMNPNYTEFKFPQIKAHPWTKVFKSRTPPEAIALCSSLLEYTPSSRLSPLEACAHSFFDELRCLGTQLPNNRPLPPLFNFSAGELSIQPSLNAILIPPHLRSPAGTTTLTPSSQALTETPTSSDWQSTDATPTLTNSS

For a further experiment, the target named is GSK3β (Homo sapiens, UniProt P49841). Nature of the experiment: GSK3β kinase assay (Caliper LabChip3000, fluoresceinated peptide substrate). The experiment is classed as biochemical. How it is done:
as §1

Setting [1] is: second value of the cell, 250 pM enzyme, 20 uM ATP, 20 hours at room temperature, read-out: GSK3β/α (nM): GSK3α IC50.
The mark [2] stands for this setting: first value of the cell, 250 pM enzyme, 20 uM ATP, 20 hours at room temperature, read-out: GSK3β/α (nM): GSK3β IC50.

GSK3β, sequence (P49841 whole entry, species assumed): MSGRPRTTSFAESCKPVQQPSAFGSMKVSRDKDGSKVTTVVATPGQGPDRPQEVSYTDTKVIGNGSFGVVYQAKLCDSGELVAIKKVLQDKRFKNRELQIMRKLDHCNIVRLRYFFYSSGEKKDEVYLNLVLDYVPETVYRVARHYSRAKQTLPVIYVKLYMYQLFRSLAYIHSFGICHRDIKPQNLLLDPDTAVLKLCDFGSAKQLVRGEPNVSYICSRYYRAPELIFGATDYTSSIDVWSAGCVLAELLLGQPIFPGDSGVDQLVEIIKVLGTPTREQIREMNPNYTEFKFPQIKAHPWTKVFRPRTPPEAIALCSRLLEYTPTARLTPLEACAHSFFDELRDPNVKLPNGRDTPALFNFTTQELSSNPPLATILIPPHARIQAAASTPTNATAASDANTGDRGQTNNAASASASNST

As for `O=C(Nc1cncc(-c2ccc(Cl)cc2)c1)c1ccnc(NC(=O)C2CC2)c1` [Example 133, N-(5-(4-chlorophenyl)pyridin-3-yl)-2-(cyclopropanecarboxamido)isonicotinamide], the IC50 on GSK3α (setting [1]) stood at 4.4 nM; at GSK3β (setting [2]), 3.3 nM. For `N#Cc1cc(F)ccc1-c1ccncc1NC(=O)c1ccnc(NC(=O)C2CC2)c1` [Example 89, N-(4-(2-cyano-4-fluorophenyl)pyridin-3-yl)-2-(cyclopropanecarboxamido)isonicotinamide], the IC50 on GSK3α (setting [1]) is 190 nM; on GSK3β (setting [2]) it was 470 nM. Regarding `CN(C)c1ccccc1-c1cncc(NC(=O)c2ccnc(NC(=O)C3CC3)c2)c1` [Example 154, 2-(cyclopropanecarboxamido)-N-(5-(2-(dimethylamino)phenyl)pyridin-3-yl)isonicotinamide], the IC50 at GSK3α (setting [1]) is 18 nM; at GSK3β (setting [2]), 40 nM.

As to `Cc1cc(-c2cncc(NC(=O)c3ccnc(NC(=O)C4CC4)c3)c2)c(C)s1` [Example 135, 2-(cyclopropanecarboxamido)-N-(5-(2,5-dimethylthiophen-3-yl)pyridin-3-yl)isonicotinamide], at GSK3β (setting [2]), the IC50 was determined as 2.7 nM. As for “2-((1,3-Cis)-3-chlorocyclobutanecarboxamido)-N-(4-phenylpyridin-3-yl)isonicotinamide [Example 221]”, the IC50 at GSK3α (setting [1]) was found to be 0.09 nM; on GSK3β (setting [2]), 0.16 nM. In the case of `O=C(Nc1cncc(-c2cccc3cccnc23)c1)c1ccnc(NC(=O)C2CC2)c1` [Example 143, 2-(cyclopropanecarboxamido)-N-(5-(quinolin-8-yl)pyridin-3-yl)isonicotinamide], the results for the IC50 on GSK3α (setting [1]) and at GSK3β (setting [2]) were 35 nM and 190 nM, respectively. Regarding `CC(C)c1ccccc1-c1cncc(NC(=O)c2ccnc(NC(=O)C3CC3)c2)c1` [Example 134, 2-(cyclopropanecarboxamido)-N-(5-(2-isopropylphenyl)pyridin-3-yl)isonicotinamide], the IC50 on GSK3β (setting [2]) was determined as 2.7 nM.

On to `O=C(Nc1cncc(-c2c(F)cccc2F)c1)c1ccnc(NC(=O)C2CC2)c1` [Example 141, 2-(cyclopropanecarboxamido)-N-(5-(2,6-difluorophenyl)pyridin-3-yl)isonicotinamide], for which the values for the IC50 at GSK3α (setting [1]) and at GSK3β (setting [2]) were 4.3 nM and 21 nM, respectively. `Cc1ncc(-c2cncc(NC(=O)c3ccnc(NC(=O)C4CC4)c3)c2)s1` [Example 159, 2-(cyclopropanecarboxamido)-N-(5-(2-methylthiazol-5-yl)pyridin-3-yl)isonicotinamide]: the IC50 was 1.9 nM at GSK3α (setting [1]) and 4.7 nM on GSK3β (setting [2]). In the case of `O=C1CC(C(=O)Nc2cc(C(=O)Nc3cnccc3-c3ccccc3)ccn2)C1` [Example 218, 2-(3-Oxocyclobutanecarboxamido)-N-(4-phenylpyridin-3-yl)isonicotinamide], the IC50 on GSK3β (setting [2]) came out at 3.9 nM.

For the compound `O=C(Nc1cncc(-c2cccnc2)c1)c1ccnc(NC(=O)C2CC2)c1` [Example 125, N-([3,3′-bipyridin]-5-yl)-2-(cyclopropanecarboxamido)isonicotinamide], the results for the IC50 at GSK3α (setting [1]) and on GSK3β (setting [2]) were 0.86 nM and 2 nM, respectively.

As to `O=C(Nc1cncc(C2CCCC2)c1)c1ccnc(NC(=O)C2CC2)c1` [Example 132, N-(5-cyclopentylpyridin-3-yl)-2-(cyclopropanecarboxamido)isonicotinamide], the figures for the IC50 on GSK3α (setting [1]) and at GSK3β (setting [2]) were 8 nM and 4.1 nM, respectively. Take `O=C(Nc1cncc(-c2cccc(F)c2F)c1)c1ccnc(NC(=O)C2CC2)c1` [Example 137, 2-(cyclopropanecarboxamido)-N-(5-(2,3-difluorophenyl)pyridin-3-yl)isonicotinamide]: the IC50 against GSK3α worked out at 0.74 nM; at GSK3β it was 3.4 nM.

As for `O=C(Nc1cncc(-c2ccccc2Cl)c1)c1ccnc(NC(=O)C2CC2)c1` [Example 127, N-(5-(2-chlorophenyl)pyridin-3-yl)-2-(cyclopropanecarboxamido)isonicotinamide], the results for the IC50 at GSK3α (setting [1]) and at GSK3β (setting [2]) were 0.54 nM and 1.3 nM, respectively.

As for `O=C(Nc1cncc(-c2cccc(Cl)c2F)c1)c1ccnc(NC(=O)C2CC2)c1` [Example 140, N-(5-(3-chloro-2-fluorophenyl)pyridin-3-yl)-2-(cyclopropanecarboxamido)isonicotinamide], the IC50 at GSK3α (setting [1]) was determined as 2.8 nM; on GSK3β (setting [2]) it was 13 nM. On the same counts, the results for `O=C(Nc1cncc2c1CCCC2)c1ccnc(NC(=O)C2CC2)c1` [Example 21, 2-(Cyclopropanecarboxamido)-N-(5,6,7,8-tetrahydroisoquinolin-4-yl)isonicotinamide] are 3.3 nM and 13 nM. Turning to `O=C(Nc1cncc(-c2csc3ccccc23)c1)c1ccnc(NC(=O)C2CC2)c1` [Example 129], the results for the IC50 on GSK3α (setting [1]) and on GSK3β (setting [2]) were 7 nM and 5.1 nM, respectively. Consider `O=C(Nc1cnccc1-c1ccc(C(F)(F)F)cc1C(F)(F)F)c1ccnc(NC(=O)C2CC2)c1` [Example 65, N-(4-(2,4-bis(trifluoromethyl)phenyl)pyridin-3-yl)-2-(cyclopropanecarboxamido)isonicotinamide], for which the IC50 on GSK3α (setting [1]) is 25 nM; on GSK3β (setting [2]), 29 nM. In the case of `CC(C)Oc1ccccc1-c1cncc(NC(=O)c2ccnc(NC(=O)C3CC3)c2)c1` [Example 136, 2-(cyclopropanecarboxamido)-N-(5-(2-isopropoxyphenyl)pyridin-3-yl)isonicotinamide], the figures for the IC50 on GSK3α (setting [1]) and at GSK3β (setting [2]) were 5.4 nM and 19 nM, respectively. On the same counts, the results for `Cn1cc(-c2cncc(NC(=O)c3ccnc(NC(=O)C4CC4)c3)c2)cn1` [Example 152, 2-(cyclopropanecarboxamido)-N-(5-(1-methyl-1H-pyrazol-4-yl)pyridin-3-yl)isonicotinamid] are 1.4 nM and 4.9 nM. Consider `COc1cccc(-c2cncc(NC(=O)c3ccnc(NC(=O)C4CC4)c3)c2)c1F` [Example 139, 2-(cyclopropanecarboxamido)-N-(5-(2-fluoro-3-methoxyphenyl)pyridin-3-yl)isonicotinamide], for which the IC50 was 0.81 nM on GSK3α (setting [1]) and 3.7 nM at GSK3β. Consider `O=C(Nc1cncc(-c2ccoc2)c1)c1ccnc(NC(=O)C2CC2)c1` [Example 121, 2-(cyclopropanecarboxamido)-N-(5-(furan-3-yl)pyridin-3-yl)isonicotinamide], for which the IC50 on GSK3α (setting [1]) amounted to 0.99 nM; on GSK3β (setting [2]), 2.4 nM.

With `O=C(Nc1cncc(-c2cc(Cl)ccc2F)c1)c1ccnc(NC(=O)C2CC2)c1` [Example 153, N-(5-(5-chloro-2-fluorophenyl)pyridin-3-yl)-2-(cyclopropanecarboxamido)isonicotinamide], the IC50 on GSK3α (setting [1]) amounted to 1.6 nM; on GSK3β (setting [2]), 5.3 nM. For `O=C(Nc1cncc(-c2ccsc2)c1)c1ccnc(NC(=O)C2CC2)c1` [Example 117, 2-(cyclopropanecarboxamido)-N-(5-(thiophen-3-yl)pyridin-3-yl)isonicotinamide] the same measures were 1.9 nM and 1.2 nM. As for `Cc1cscc1-c1cncc(NC(=O)c2ccnc(NC(=O)C3CC3)c2)c1` [Example 130, 2-(cyclopropanecarboxamido)-N-(5-(4-methylthiophen-3-yl)pyridin-3-yl)isonicotinamide], the IC50 stood at 0.41 nM at GSK3α (setting [1]) and 2.5 nM at GSK3β (setting [2]). For `O=C(Nc1cncc(-c2ccccc2OC(F)(F)F)c1)c1ccnc(NC(=O)C2CC2)c1` [Example 149, 2-(cyclopropanecarboxamido)-N-(5-(2-(trifluoromethoxy)phenyl)pyridin-3-yl)isonicotinamide] the same measures were 1.75 nM and 8.5 nM.

As for `CC(=O)c1ccccc1-c1cncc(NC(=O)c2ccnc(NC(=O)C3CC3)c2)c1` [Example 144, N-(5-(2-acetylphenyl)pyridin-3-yl)-2-(cyclopropanecarboxamido)isonicotinamide], the IC50 on GSK3α (setting [1]) came to 15 nM; on GSK3β (setting [2]), 55 nM. In the case of `O=C1CCC(C(=O)Nc2cc(C(=O)Nc3cnccc3-c3ccccc3)ccn2)C1` (stereo not shown) [Example 229, 2-(3-Oxocyclopentanecarboxamido)-N-(4-phenylpyridin-3-yl)isonicotinamide], the IC50 at GSK3β (setting [2]) came out at 1.6 nM. Take `O=C(Nc1cncc(-c2cccc(Cl)c2Cl)c1)c1ccnc(NC(=O)C2CC2)c1` [Example 138, 2-(cyclopropanecarboxamido)-N-(5-(2,3-dichlorophenyl)pyridin-3-yl)isonicotinamide]: the IC50 at GSK3α (setting [1]) is 1.8 nM; on GSK3β (setting [2]) it was 10.5 nM. For `O=C(Nc1cncc(-c2cccc(F)c2)c1)c1ccnc(NC(=O)C2CC2)c1` [Example 126, 2-(cyclopropanecarboxamido)-N-(5-(3-fluorophenyl)pyridin-3-yl)isonicotinamide] the same measures were 1.1 nM and 2.5 nM.

Take “2-((1,3-Trans)-3-chlorocyclobutanecarboxamido)-N-(4-phenylpyridin-3-yl)isonicotinamide [Example 220]”: the IC50 on GSK3α (setting [1]) stood at 0.22 nM; at GSK3β (setting [2]), 0.37 nM.

In the case of `N#Cc1cscc1-c1cncc(NC(=O)c2ccnc(NC(=O)C3CC3)c2)c1` [Example 131, N-(5-(4-cyanothiophen-3-yl)pyridin-3-yl)-2-(cyclopropanecarboxamido)isonicotinamide], the IC50 came to 0.76 nM at GSK3α (setting [1]) and 0.41 nM at GSK3β (setting [2]). For `O=C(Nc1cnccc1-c1ccccc1)c1ccnc(NC(=O)C2CC(Cl)C2)c1` (stereo not shown) [Example 215, 2-(3-Cholorocyclobutanecarboxamido)-N-(4-phenylpyridin-3-yl)isonicotinamide] the same measures were 0.25 nM and 0.4 nM. For `CCCOc1ccccc1-c1cncc(NC(=O)c2ccnc(NC(=O)C3CC3)c2)c1` [Example 146, 2-(cyclopropanecarboxamido)-N-(5-(2-propoxyphenyl)pyridin-3-yl)isonicotinamide], the IC50 at GSK3α (setting [1]) amounted to 3.4 nM; on GSK3β (setting [2]), 4.5 nM.
